# Key:
# [1] = Humidity stress experiments at 58% relative humidity; assay type: physicochemical; conditions: for Observations after humidity stress: 58% RH; for Physical state after humidity stress: 58% relative humidity for 4 or 10 days
# Text: A sample of this enterostatin acetate, 1-hydroxy-2-naphthoic acid co-complex of the invention was stressed at 58% relative humidity for 4 or 10 days.
# A sample of this enterostatin chloride, 1-hydroxy-2-naphthoic acid co-complex of the invention was stressed at 58% relative humidity for 4 or 10 days.
# A sample of each co-complex of the above examples was stressed at 58% relative humidity for either 4 or 10 days.
# The cocrystal guests piperazine and 1-OH-2-napthoic acid were stressed at 58% relative humidity.
# [2] = Moisture balance (weight change with relative humidity); assay type: physicochemical
# Protocol: Analytical techniques discussed below were conventional unless otherwise specified. In particular, differential scanning calorimetry and moisture balance experiments were carried out according to standard techniques. NMR was in D2O.
# FIG. 3 provides moisture balance of this enterostatin acetate, 1-hydroxy-2-naphthoic acid co-complex of the invention.
Compound,Observations after humidity stress ([1]; 14 days),Observations after humidity stress ([1]; 4 days),Physical state after humidity stress [1],Observations after humidity stress ([1]; 10 days),also measured
"C1CNCCN1 [Piperazine, reference compound]",Oil puddle,–,–,–,Observations after humidity stress ([1]; 5 days): Oil puddle
"Enterostatin Acetate, 1-Hydroxy-2-naphthoic Acid [Example 2]",–,"Bits, broken glass",remained solid,–,weight gain (moisture balance) ([2]; from 5 to 95% relative humidity): 22%; weight loss (moisture balance) ([2]; from 95 to 5% relative humidity): 24%
"Enterostatin Chloride, Camphoric Acid [Example 5]",–,–,–,Deliquesced,–
"Enterostatin Sulfate, Hippuric Acid [Example 7]",–,–,–,Tacky white goo,–

# Now from value to compound, other results behind:
Observations after humidity stress ([1]; 14 days),Observations after humidity stress ([1]; 4 days),Physical state after humidity stress [1],Observations after humidity stress ([1]; 10 days),Compound,also measured
Light brown chunks,–,–,–,"O=C(O)c1ccc2ccccc2c1O [1-OH-2-napthoic acid, reference compound]","Observations after humidity stress ([1]; 14 days, listed as 1-OH-2-napthoic): remained a solid"
–,"Irregulars, chunks",remained solid,–,"Enterostatin Chloride, 1-Hydroxy-2-naphthoic Acid [Example 3]",–

# — patent publication US20070149457A1, “Stable solid forms of enterostatin” (priority 2005, published 2007)
